These results are taken from patent publication US20240252463A1, “METHODS OF TREATING FIBROTIC PATHOLOGIES” (Mayo Foundation for Medical Education and Research, priority 2018, published 2024).

Counter-ions that a name gives are not always drawn. Like-named read-outs stand apart in the source and are kept apart here. Where no end group is shown, it is not given here.

The subject of assay [1] is YAP/TAZ. In words: YAP/TAZ nuclear localization (immunofluorescence, automated imaging) in IPF patient-derived lung fibroblasts. Type of assay: cell-based, human. Here is the method:
27A. […] IPF patient-derived lung fibroblasts cells treated 2 hours prior to fixation with diverse dopaminergic agonists (10 μM). N=4 different patient samples. % nuclear localization of YAP/TAZ was determined using automated imaging software. Scale bar represents 100 μm. 27C. cAMP measured in IPF patient-derived fibroblasts treated for 20 minutes with DHX. N=3. 27E.
(§1) ImmunofluorescenceMicroscopy: Cells were plated into 96 well plates (Corning 3603) in their specific growth media and allowed to attach (8 hours). Media was then exchanged for the indicated conditions for each experiment. Cells were fixed in 3.7% formalin (Sigma-Aldrich), permeabilized in 0.25% Triton X-100 (Sigma-Aldrich) and then blocked with 1% BSA for 1 h. Cells or tissue sections were incubated overnight with mouse monoclonal antibody against αSMA (Sigma-Aldrich F3777), and/or a rabbit monoclonal antibody against YAP/TAZ (Cell Signaling D24E4) diluted 1:200 in PBS with 1% BSA. Cells were then washed and exposed to flourescence-conjugated secondary antibodies (Invitrogen) diluted 1:1000 and DAPI (Thermo Fisher Scientific). Images were taken with a Cytation5 (BioTek) microscope. For scoring αSMA positive cells (FIG. 3b), an observer blinded to the treatment conditions counted αSMA-positive cells using a visual threshold for bright fibrous staining; a minimum of 200 cells was counted for each condition. YAP/TAZ localization was quantified (FIG. 2, 6, 8) using Gen5 (Biotek) software. Images were taken at 4× magnification of both DAPI and YAP/TAZ staining. […] Quantification of double positive (YAP/TAZ and αSMA) cells from lung tissue sections (FIG. 4d) was performed similarly; however separate thresholds were established for both YAP/TAZ and αSMA. A minimum of 4000 cells was quantified for each mouse.

A further assay deals with αSMA. In words: αSMA intensity (fibroblast activation) in IPF patient-derived lung fibroblasts + TGFβ. As to conditions: Homo sapiens, SMA, 1 μM + TGFβ, treated for 72 hours. Type of assay: cell-based, human. Here is the method: as §1
The test system of the next assay is human dermal fibroblasts. In words: Profibrotic gene expression in human dermal fibroblasts +/- TGFβ. Type of assay: cell-based. As to conditions: 24 hours +/− 2 ng/mL TGFβ. Here is the method:
Human dermal fibroblasts treated for 24 hours+/−2 ng/mL TGFβ and D1 agonists: DHX and A68930 prior to RNA isolation. N=2. For all other in vitro experiments, cells were treated as indicated prior to RNA isolation using RNeasy Plus Mini Kit (Qiagen) according to manufacturer's instructions. Isolated RNA (250 ng) was then used to synthesize cDNA using SuperScript VILO (Invitrogen). Quantitative PCR was performed using FastStart Essential DNA Green Master (Roche) and analyzed using a LightCycler 96 (Roche). Data are expressed as a fold change by ΔΔCt relative to GAPDH. For in vivo experiments, tissue was immediately frozen, and stored at −80° C. RNA isolation, cDNA synthesis, and qPCR analysis were performed as above.

The next assay has as its system αSMA+ stress fibers. In words: TGFβ-induced αSMA+ stress fiber formation. Type of assay: cell-based, human. The note with it: TGFβ 48 hours, then dopamine 1 μM + TGFβ 24 hours. Here is the method: ImmunofluorescenceMicroscopy: Cells were plated into 96 well plates (Corning 3603) in their specific growth media and allowed to attach (8 hours). Media was then exchanged for the indicated conditions for each experiment. Cells were fixed in 3.7% formalin (Sigma-Aldrich), permeabilized in 0.25% Triton X-100 (Sigma-Aldrich) and then blocked with 1% BSA for 1 h. Cells or tissue sections were incubated overnight with mouse monoclonal antibody against αSMA (Sigma-Aldrich F3777), and/or a rabbit monoclonal antibody against YAP/TAZ (Cell Signaling D24E4) diluted 1:200 in PBS with 1% BSA.

Assay [2] has as its system IPF patient derived fibroblasts. In words: Traction Force Microscopy of IPF patient derived fibroblasts. The note with it: IPF fibroblasts on 6.4 kPa matrices. Type of assay: cell-based, human. Here is the method: Traction Force Microscopy: Traction analysis was conducted as previously described. Briefly, polyacrylamide substrates with shear moduli of 6.4 kPa were prepared, and fluorescent sulfate-modified latex microspheres (0.2 μm, 505/515 ex/em) (FluoSpheres, Life Technologies) were conjugated to the gel surfaces after treatment with 1 mg ml^−1 of dopamine hydrochloride (Sigma-Aldrich) in 50 mM HEPES solution (pH 8.5). IPF patient derived fibroblasts were plated on the gels overnight and treated as indicated before traction force measurements. Images of gel surface-conjugated fluorescent beads were acquired for each cell before and after trypsinization using a Nikon ECLIPSE Ti microscope at ×10 magnification. Traction forces were estimated by measuring bead displacement fields and computing corresponding traction fields using TractionsForAll (freely distributed program that calculates 2-D tractions exerted by an adherent cell on its substrate).

Assay [3] concerns YAP/TAZ. In words: YAP/TAZ nuclear localization in IMR-90 and other mesenchymal cells (cardiac, dermal fibroblasts, hepatic stellate cells). Type of assay: cell-based, human. As to conditions: for YAP/TAZ nuclear localization: fibroblasts on stiff matrix (plastic), IMR-90 cells treated 2 hours (FIG. 2a); for YAP/TAZ nuclear localization in confluent fibroblasts, ligand alone: ET-1 100 nM, LPA 10 μM, 5-HT 1 μM, 2 hours (FIG. 2c). Here is the method: FIGS. 2A-2E Dopamine Receptor D1 agonism blocks YAP/TAZ nuclear localization. 2a. Selective agonists of dopamine receptor D1 with varying efficacy inhibit YAP/TAZ nuclear localization; this effect can be overcome by treatment with a DRD1 receptor antagonist (SCH 39166, 3 μM), (Dihydrexidine, 10 μM). IMR-90 cells treated 2 hours prior to fixation. N=4 (****p<0.0001 vs. 0.1% DMSO vehicle control). Scale bar represents 100 μm. 2b. Consistent with DRD1 expression, DHX inhibits YAP/TAZ only in fibroblasts (IPF-FBs) but not in epithelial (NHEpCs) or endothelial (NHMVECs) cells. N=4 (****p<0.0001 vs. 0.1% DMSO vehicle control) 2c. YAP/TAZ localization is induced through multiple ligands which stimulate receptors coupled to Galphαi/q/12, endothelin 1 (ET-1: 100 nM), lysophosphatidic acid (LPA: 10 μM), and serotonin (5-HT: 1 μM). In each case DHX treatment (10 μM) can reverse this effect on YAP/TAZ. IMR-90 cells plated densely onto plastic cell culture plates for 24 hours in media containing 0.1% FBS, treated for 2 hours prior to fixation. N=4 (****p<0.0001 vs. 0.1% DMSO vehicle control), (++++p<0.0001 vs. the respective stimulated agonist ET-1, LPA, or 5-HT). Scale bar represents 100 μm. 2d. cAMP measured in IPF patient-derived fibroblasts treated for 20 minutes with DHX (10 μM)+/−SCH 39166 (3 μM). N=3 (**p<0.01 vs. 0.1% DMSO vehicle control). 2e. Phosphorylation of YAP by Rho-kinase inhibitor Y27632 (20 μM), direct cAMP stimulator Forskolin (10 μM), or DHX (10 μM). IMR-90 cells cultured for 24 hours in media containing 0.1% FBS, treated 2 hours prior to fixation. N=3 (***p<0.001 vs. 0.1% DMSO vehicle control).
FIGS. 6A-6C DHX inhibits YAP/TAZ localization in fibroblasts from multiple tissues. 6a. Mesenchymal cells derived from lung (IMR-90 and IPF-FBs) hepatic stellate cells (HSC), human adult cardiac fibroblasts, (HACF) and human dermal fibroblasts (HDF) were plated densely (Confluent) or sparsely (Control and all remaining conditions) onto plastic cell culture plates for 24 hours in media containing 0.1% FBS, treated for 2 hours with Rho kinase inhibitor Y27632, adenylate cyclase activator forskolin and DHX. N=4, Cells that were positive for nuclear YAP/TAZ were quantified by automated image analysis. 6b. Time course for DHX inhibition of YAP/TAZ nuclear localization. IMR-90 cells, N=3 (***p<0.001 vs. 0.1% DMSO vehicle control). 6c. […] N=3.
as §1

A further assay deals with cAMP. In words: cAMP Assay (cAMP-Glo) in lung fibroblasts. Type of assay: cell-based, human. As to conditions: IMR-90 lung fibroblasts (FIG. 31F-31H). Here is the method: cAMP Assay: IPF patient derived fibroblasts were plated in EMEM containing 10% FBS overnight. […] 20 minutes prior to cell lysis media was removed and cells were treated with “induction buffer” containing nonselective phosphodiesterase inhibitors and the indicated concentration of compound(s). Luminescence was measured on a Flexstation 3 (Molecular Devices) plate reader.

The test system of assay [4] is YAP/TAZ-TEAD interactions. As to conditions: Ref. 19; cited from earlier work.
The mark [5] stands for this setting: patient sample IPF-1, read-out: αSMA intensity (% of DMSO control) IPF-1.
Setting [6] is: patient sample IPF-2, read-out: αSMA intensity (% of DMSO control) IPF-2.
Setting [7] is: patient sample IPF-3, read-out: αSMA intensity (% of DMSO control) IPF-3.
Setting [8] is: patient sample IPF-4, read-out: αSMA intensity (% of DMSO control) IPF-4.

For the compound `NCC1OC(c2ccccc2)Cc2c1ccc(O)c2O` (centres unmarked) [A 68930•HCl], the “Nuclear localization (% of total cells) IPF-1” value in the assay with YAP/TAZ [1] (patient sample IPF-1, 10 μM, treated 2 hours prior to fixation) is given as 33.13 % of total cells. For the same compound, the “Nuclear localization (% of total cells) IPF-2” value in the assay on YAP/TAZ [1] (patient sample IPF-2, 10 μM, treated 2 hours prior to fixation) was 30.59 % of total cells. For the same compound, in the assay with YAP/TAZ [1] (patient sample IPF-3, 10 μM, treated 2 hours prior to fixation), the “Nuclear localization (% of total cells) IPF-3” value is on record as 26.82 % of total cells. In addition, the “Nuclear localization (% of total cells) IPF-4” value in the assay on YAP/TAZ [1] (patient sample IPF-4, 10 μM, treated 2 hours prior to fixation) is on record as 10.26 % of total cells. Also, the activity at 1 µM with αSMA (setting [5]) was determined as 12.4%; with αSMA (setting [6]) it was 8.11%; with αSMA (setting [7]), 3.25%; with αSMA (setting [8]), 7.35%. In the assay with human dermal fibroblasts, the “profibrotic gene expression in human dermal fibroblasts” value is reported as “blocks profibrotic gene expression”.

Turning to `NCCc1ccc(O)c(O)c1` [Dopamine•HCl, Dopamine], the “YAP/TAZ nuclear localization, low density IPF fibroblasts” value in the assay on YAP/TAZ [1] (tissue culture plastic (FIG. 34A)) was “inhibits YAP/TAZ nuclear localization”. The activity at 1 µM in the assay with αSMA (setting [5]) came out at 35.2%; with αSMA (setting [6]) it was 8.09%; with αSMA (setting [7]), 26.6%; with αSMA (setting [8]), 5.37%. For the same compound, in the assay on αSMA+ stress fibers, the “αSMA+ stress fiber formation in IPF-patient derived fibroblasts” value is recorded as “reverses αSMA+ stress fiber formation”. In assay [2], the “contractile forces (traction force microscopy)” value is “attenuates IPF fibroblast contractility”.

Regarding `Oc1ccc(C2CNCCc3c2cc(O)c(O)c3Cl)cc1` (centres unmarked) [Fenoldopam•HCl, Fenoldopam], the activity at 1 µM was determined as 77.3% in the assay on αSMA (setting [5]), 45.3% with αSMA (setting [6]), 69.4% in the assay on αSMA (setting [7]) and 63.4% in the assay on αSMA (setting [8]). In the assay with YAP/TAZ [3], the YAP/TAZ nuclear localization entry was “reduced nuclear localization of YAP/TAZ”.

In the case of `CN1CCc2ccccc2Cc2[nH]c3ccccc3c2CC1` [LE-300], the “antagonism of DHX's elevation of cAMP, inhibition of YAP/TAZ nuclear localization and of YAP/TAZ target genes” value in the assay with cAMP is given as “block DHX's elevation of cAMP”.

As for `CCCCC[C@H](O)/C=C/[C@H]1[C@H](O)CC(=O)[C@@H]1C/C=C\CCCC(=O)O` [PGE2, Prostaglandin E2], the “potency of inhibition of YAP/TAZ nuclear localization, normal lung fibroblasts vs IPF-derived” value with YAP/TAZ [3] (FIG. 6c) is “reduced potency”.

`CN1CCc2cc(Cl)c(O)cc2[C@H]2c3ccccc3CC[C@@H]21` [SCH-39166]: the “antagonism of DHX's elevation of cAMP, inhibition of YAP/TAZ nuclear localization and of YAP/TAZ target genes” value with cAMP is reported as “block DHX's elevation of cAMP”.

Consider `Oc1cc2c(c(Cl)c1O)CCNCC2c1ccccc1` (centres unmarked) [SKF-81297], for which the YAP/TAZ nuclear localization result in the assay on YAP/TAZ [3] was “reduced nuclear localization of YAP/TAZ”.

Turning to `NCCc1c[nH]c2ccc(O)cc12` [serotonin], the “YAP/TAZ nuclear localization in confluent fibroblasts, ligand alone” value (shortened to “YAP/TAZ nuclear localization … ligand alone”) with YAP/TAZ [3] is reported as “enhance YAP/TAZ nuclear localization”.

With “endothelin-1: GPCR ligand implicated in promotion of fibrosis (CSCSSLMDKECVYFCHLDIIW; ends and bridges not checked; cysteine pairing not given here; UniProt P05305 53-73, looked up)”, the “YAP/TAZ nuclear localization … ligand alone” value with YAP/TAZ [3] is given as “enhance YAP/TAZ nuclear localization”.

lysophosphatidic acid: the “YAP/TAZ nuclear localization … ligand alone” value with YAP/TAZ [3] is given as “enhance YAP/TAZ nuclear localization”.

In the case of verteporfin, the “effects in models of liver fibrosis” value in assay [4] is “limited beneficial effects”.
